Source: patent US20030133974A1 (priority 1997, published 2003)
Counter-ions that a name gives are not always drawn.

How the values were obtained:
[1] = Precipitation studies with sertraline base in 0.1N HCl and phosphate buffered saline pH 5.8 (Example 4)
Experimental: Solution (a) is a simulated gastric fluid, and solution (b) is a simulated intestinal fluid.
PEG400 is miscible with aqueous media, while Capmul®-MCM and safflower oil are not. One milliliter of the test solution was added to 10 mL of (a) 0.1N HCl solution and (b) phosphate buffered saline (PBS) pH 5.8 and was stirred vigorously.
Mobile phase: per liter of mobile phase: 270 mL of tetrahydrofuran, 230 mL of methanol and 400 mL of buffer. The buffer consisted of 25 mM triethylamine phosphate. It was prepared by adding 1.7 mL of phosphoric acid and 3.5 mL of tirethylamine to 1 liter of water.

[2] = Dilution of PEG-400 or polysorbate-80 solution of sertraline base into 0.9% NaCl (Example 3); assay type: physicochemical
Experimental: One ml of this test solution was added to 15 ml normal saline (0.9% NaCl, pH 4.2), and was stirred vigorously.

[3] = Equilibrium solubility of sertraline base and hydrochloride in selected vehicles (Table 4-4); assay type: physicochemical; conditions: vehicle Miglyol 810
From the text: Water-immiscible vehicles do have this capacity.

physchem = conditions: simulated gastric fluid
[4] = Chloride-induced gelling of sertraline salt solutions; assay type: physicochemical
[5] = human, in vivo
[6] = dosed as Zoloft tablets; cited from earlier work
[7] = Human crossover pharmacokinetics of 200 mg sertraline delivered to various portions of the gastrointestinal tract (Example 1); assay type: in vivo; conditions: Group A
Experimental: Dosing was via (1) oral tablets, or (2) infusion of a solution through a nasoenteric tube into the stomach, duodenum, or ileocecal region of the small intestine, or (3) infusion into the transverse colon via anal intubation.
The infusions were administered as a 2 mg/ml solution at a rate of 20 ml/min for 5 min.
Analysis was carried out by capillary gas chromatography with electron capture detection. […] Tmax is the time at which Cmax is achieved.

clinical = conditions: human, in vivo, po
[8] = in water; cited from earlier work

CN[C@H]1CC[C@@H](c2ccc(Cl)c(Cl)c2)c2ccccc21 [Free base, sertraline free base]
Concentration of sertraline in aqueous layer ([1]; Capmul MCM 50 mgA/mL, 1 mL into 10 mL phosphate buffered saline pH 5.8, 120 minutes): 0.16 mgA/mL | Concentration of sertraline in aqueous layer ([1]; Safflower oil 50 mgA/mL, 1 mL into 10 mL 0.1 N HCl, 120 minutes): 0.48 mgA/mL | Concentration of sertraline in aqueous layer ([1]; Safflower oil 50 mgA/mL, 1 mL into 10 mL phosphate buffered saline pH 5.8, 120 minutes): 0.19 mgA/mL | Precipitation of sertraline ([1]; solution in safflower oil added to phosphate buffered saline): little or no precipitation | Observed Concentration after Dilution in Saline after 2 hr ([2]; vehicle Polysorbate-80, 50 mgA/ml in vehicle, 1 ml into 15 ml 0.9% NaCl): 3.1 mgA/ml | Equilibrium solubility in Miglyol 810 [3]: >50 mgA/ml

CN[C@H]1CC[C@@H](c2ccc(Cl)c(Cl)c2)c2ccccc21 [Hydrochloride, sertraline hydrochloride]
solubility (physchem): ~3000 µg/mL | Equilibrium solubility in Miglyol 810 ([3]; hydrochloride): greater than 0.1 mgA/ml

CN[C@H]1CC[C@@H](c2ccc(Cl)c(Cl)c2)c2ccccc21 [Lactate, sertraline lactate]
State of saturated solution at physiological chloride concentrations [4]: thick pasty solid which does not flow

CN[C@H]1CC[C@@H](c2ccc(Cl)c(Cl)c2)c2ccccc21 [sertraline]
Precipitation of sertraline ([1]; PEG 400 solution added into either 0.1 N HCl or phosphate buffered saline): precipitation of a large proportion of sertraline | Portion of sertraline remaining in solution ([1]; vehicle Capmul-MCM, 0.1 N HCl or phosphate buffered saline): > 95 % of added amount | Intrinsic absorption rate constant (ARC) [5]: greater than 0.025 min^−1 | Precipitation upon addition to a NaCl solution ([2]; PEG400 solution of sertraline): a portion of the sertraline precipitates | Precipitation upon addition to a NaCl solution ([2]; Polysorbate-80 solution of sertraline): no precipitation occurs | Absolute oral bioavailability [6]: 54% | AUCO-LAST ([7]; Ileocecal Infusion of solution): 727.1 ng·h/mL | AUCO-LAST ([7]; Oral Tablet (two 100 mg Zoloft tablets)): 1174.5 ng·h/mL | AUCO-LAST ([7]; Stomach Infusion of solution): 923.1 ng·h/mL | Tmax (clinical): < 1.5 h

sertraline acetate
State of saturated solution at physiological chloride concentrations [4]: thick pasty solid which does not flow

vitamin E
Aqueous solubility [8]: practically insoluble in water
